These results are taken from patent publication US10406207B2, “Peptide conjugates of GLP-1 receptor agonists and gastrin and their use” (priority 2010, dated 2019).

One experiment has as its target T1, human CCK-B R (Homo sapiens, UniProt P32239).
T1 construct: expressed in transfected cells
T1 sequence (P32239 1-447): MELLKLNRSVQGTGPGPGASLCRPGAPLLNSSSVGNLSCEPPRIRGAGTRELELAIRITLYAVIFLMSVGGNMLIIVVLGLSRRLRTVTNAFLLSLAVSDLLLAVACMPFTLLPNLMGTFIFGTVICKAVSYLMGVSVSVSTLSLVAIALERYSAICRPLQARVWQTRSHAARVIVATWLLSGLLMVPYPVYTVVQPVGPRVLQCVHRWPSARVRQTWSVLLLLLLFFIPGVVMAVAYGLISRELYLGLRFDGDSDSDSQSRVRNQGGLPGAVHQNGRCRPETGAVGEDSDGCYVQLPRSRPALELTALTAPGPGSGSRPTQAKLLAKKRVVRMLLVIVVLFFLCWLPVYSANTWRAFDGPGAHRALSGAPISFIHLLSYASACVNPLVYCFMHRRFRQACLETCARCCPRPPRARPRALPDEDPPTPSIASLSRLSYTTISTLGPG
Kind of experiment: Human CCK-B receptor efficacy assay (AlphaScreen SureFire p-ERK). The class given is cell-based. Particulars: Table 1; HEK293 cells expressing human CCK-B R, p-ERK; read-out: hCCK-B R EC50.

In the next experiment the target is T2, mouse CCK-B R (Mus musculus, UniProt P56481).
T2 construct: expressed in transfected cells
T2 sequence (P56481 1-453): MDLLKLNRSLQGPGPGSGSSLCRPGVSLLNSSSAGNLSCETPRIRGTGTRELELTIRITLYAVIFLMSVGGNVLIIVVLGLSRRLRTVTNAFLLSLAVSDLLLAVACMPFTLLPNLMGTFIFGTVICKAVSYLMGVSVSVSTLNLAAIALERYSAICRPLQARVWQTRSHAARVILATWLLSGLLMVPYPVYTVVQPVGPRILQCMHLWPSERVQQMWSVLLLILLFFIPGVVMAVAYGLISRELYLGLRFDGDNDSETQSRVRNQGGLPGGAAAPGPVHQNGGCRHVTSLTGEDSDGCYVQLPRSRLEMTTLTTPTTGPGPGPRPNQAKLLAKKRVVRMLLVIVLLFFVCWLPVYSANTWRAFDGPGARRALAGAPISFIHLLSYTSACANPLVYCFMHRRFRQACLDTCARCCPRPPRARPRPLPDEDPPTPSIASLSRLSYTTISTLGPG
As to the kind of experiment: Mouse CCK-B receptor efficacy assay (AlphaScreen SureFire p-ERK). Particulars: Table 1; HEK293 cells expressing mouse CCK-B R, p-ERK; read-out: mCCK-B R EC50. The class given is cell-based. The source says:
CCK-B Receptor (CCK-B R) Efficacy Assay:
To test binding and activation of CCK-B R we produced stable cell lines expressing one of the human or mouse CCK receptors in a manner similar to that for production of the hGLP-1 R cell lines were generated (vide supra). In brief, we used HEK293 cells for transfection of the cDNA for human or mouse CCK-A R or CCK-B R [hCCK-A R (gene identity: L19315), hCCK-B R (NM_176875), mCCK-A R (NM_009827) and mCCK-B R (NM_007627)] all cloned into the transfection plasmid pIRESneo2dNGFR. The cells were grown according to standard protocol in growth medium and transfected with the plasmids using Lipofectamin (Invitrogen). The cells stably expressing CCK receptors were selected using G418 in the growth medium (only cells that have taken up and incorporated the cDNA expression plasmid survive) and propagated. Stocks of cells were frozen for later use.
In vitro effects of peptide conjugates of the invention were estimated by measuring p-ERK (using the AlphaScreen™ SureFire p-ERK assay) in HEK293 cells stably expressing the human and mouse CCK-B R (high-affinity Gastrin receptor), respectively. The Gastrin receptor efficacy assays (AlphaScreen™ SureFire p-ERK assay) were performed as follows:
The CCK-B R expressing cells in question were seeded at 20,000 cells/well in 100 μl growth medium [DMEM, 10% FCS, Penicillin (100 IU/ml), Streptomycin (100 μg/ml)] in a 96-well plate coated with poly-D-lysine. The cells were incubated in an incubator (37° C., 5% […]) for two days.
The growth medium was changed to 80 μl of serum-free medium [DMEM, Penicillin (100 IU/ml), Streptomycin (100 μg/ml)] per well, and incubation of the cells was continued for 19 hours in the incubator (37° C., 5% CO2).
• 1. After 19 hours, 20 μl of serum-free medium containing one of 5 different concentrations of peptide conjugate was added (performed in triplicate for each concentration), and the cells were incubated for 5 min. at room temperature. • 2. The stimulation medium was discarded by quickly turning the plate upside down, and 60 μl 1× lysis buffer (from the SureFire assay kit) was added per well. • 3. The plate was shaken on a plate-shaker for 5 min and then placed on ice. • 4. SureFire P-ERK assay: 4 μl of each supernatant was transferred to a 384 well proxiplate (Perkin Elmer). • 5. 4 μl of each of the two control lysates (unstimulated and stimulated) were added to the proxiplate in duplicate. • 6. […] 7 μl of the latter reaction buffer+activation buffer+beads per well were added in the proxiplate, the mix being resuspended carefully before addition to the wells. • 7. The plate was incubated for 2 hours in a dark box in a 22° C. incubator. • 8. The plate was analyzed on an Envision™ light-emission plate reader (Perkin-Elmer) using the appropriate reading program (Perkin-Elmer).

Experimental for human CCK-B R: The CCK-B R expressing cells in question were seeded at 20,000 cells/well in 100 μl growth medium [DMEM, 10% FCS, Penicillin (100 IU/ml), Streptomycin (100 μg/ml)] in a 96-well plate coated with poly-D-lysine. The cells were incubated in an incubator (37° C., 5% 002) for two days.

`CC[C@H](C)[C@H](NC(=O)[C@H](Cc1ccccc1)NC(=O)[C@H](CCC(=O)O)NC(=O)[C@H](CCCCN)NC(=O)[C@H](C)NC(=O)[C@H](C)NC(=O)[C@H](CCC(N)=O)NC(=O)CNC(=O)[C@H](CCC(=O)O)NC(=O)[C@H](CC(C)C)NC(=O)[C@H](Cc1ccc(O)cc1)NC(=O)[C@H](CO)NC(=O)[C@H](CO)NC(=O)[C@@H](NC(=O)[C@H](CC(=O)O)NC(=O)[C@H](CO)NC(=O)[C@@H](NC(=O)[C@H](Cc1ccccc1)NC(=O)[C@@H](NC(=O)CNC(=O)[C@H](CCC(=O)O)NC(=O)[C@H](C)NC(=O)[C@@H](N)Cc1c[nH]cn1)[C@@H](C)O)[C@@H](C)O)C(C)C)C(=O)N[C@@H](C)C(=O)N[C@@H](Cc1c[nH]c2ccccc12)C(=O)N[C@@H](CC(C)C)C(=O)N[C@H](C(=O)N[C@@H](CCCCN)C(=O)NCC(=O)N[C@@H](CCCNC(=N)N)C(=O)NCCOCCOCC(=O)N[C@@H](CO)C(=O)N[C@@H](CCCCN)C(=O)N[C@@H](CCCCN)C(=O)N[C@@H](CCC(N)=O)C(=O)NCC(=O)N1CCC[C@H]1C(=O)N[C@@H](Cc1c[nH]c2ccccc12)C(=O)N[C@@H](CC(C)C)C(=O)N[C@@H](CCC(=O)O)C(=O)N[C@@H](CCC(=O)O)C(=O)N[C@@H](CCC(=O)O)C(=O)N[C@@H](CCC(=O)O)C(=O)N[C@@H](CCC(=O)O)C(=O)N[C@@H](C)C(=O)N[C@@H](Cc1ccc(O)cc1)C(=O)NCC(=O)N[C@@H](Cc1c[nH]c2ccccc12)C(=O)N[C@@H](CC(C)C)C(=O)N[C@@H](CC(=O)O)C(=O)N[C@@H](Cc1ccccc1)C(N)=O)C(C)C` [Compound 41, GLP-1(7-36)-Peg3-SKK-[Gln1,Leu15]Gastrin17]: the EC50 at human CCK-B R was determined as 8.76 nM; on mouse CCK-B R, 51.1 nM.
The matching figures for `CC[C@H](C)[C@H](NC(=O)[C@H](Cc1ccccc1)NC(=O)[C@H](CCC(=O)O)NC(=O)[C@H](CCCCN)NC(=O)[C@H](C)NC(=O)[C@H](C)NC(=O)[C@H](CCC(N)=O)NC(=O)CNC(=O)[C@H](CCC(=O)O)NC(=O)[C@H](CC(C)C)NC(=O)[C@H](Cc1ccc(O)cc1)NC(=O)[C@H](CO)NC(=O)[C@H](CO)NC(=O)[C@@H](NC(=O)[C@H](CC(=O)O)NC(=O)[C@H](CO)NC(=O)[C@@H](NC(=O)[C@H](Cc1ccccc1)NC(=O)[C@@H](NC(=O)CNC(=O)[C@H](CCC(=O)O)NC(=O)[C@H](C)NC(=O)[C@@H](N)Cc1c[nH]cn1)[C@@H](C)O)[C@@H](C)O)C(C)C)C(=O)N[C@@H](C)C(=O)N[C@@H](Cc1c[nH]c2ccccc12)C(=O)N[C@@H](CC(C)C)C(=O)N[C@H](C(=O)N[C@@H](CCCCN)C(=O)NCC(=O)N[C@@H](CCCNC(=N)N)C(=O)NCCOCCOCC(=O)NCCOCCOCC(=O)N[C@@H](CCC(N)=O)C(=O)NCC(=O)N1CCC[C@H]1C(=O)N[C@@H](Cc1c[nH]c2ccccc12)C(=O)N[C@@H](CC(C)C)C(=O)N[C@@H](CCC(=O)O)C(=O)N[C@@H](CCC(=O)O)C(=O)N[C@@H](CCC(=O)O)C(=O)N[C@@H](CCC(=O)O)C(=O)N[C@@H](CCC(=O)O)C(=O)N[C@@H](C)C(=O)N[C@@H](Cc1ccc(O)cc1)C(=O)NCC(=O)N[C@@H](Cc1c[nH]c2ccccc12)C(=O)N[C@@H](CC(C)C)C(=O)N[C@@H](CC(=O)O)C(=O)N[C@@H](Cc1ccccc1)C(N)=O)C(C)C` [Compound 42, GLP-1(7-36)-Peg3-Peg3-[Gln1,Leu15]Gastrin17]: 8.2 nM and 58.3 nM.
The matching figures for `CC[C@H](C)[C@H](NC(=O)[C@H](Cc1ccccc1)NC(=O)[C@H](CCC(=O)O)NC(=O)[C@H](CCCCN)NC(=O)[C@H](C)NC(=O)[C@H](C)NC(=O)[C@H](CCC(N)=O)NC(=O)CNC(=O)[C@H](CCC(=O)O)NC(=O)[C@H](CC(C)C)NC(=O)[C@H](Cc1ccc(O)cc1)NC(=O)[C@H](CO)NC(=O)[C@H](CO)NC(=O)[C@@H](NC(=O)[C@H](CC(=O)O)NC(=O)[C@H](CO)NC(=O)[C@@H](NC(=O)[C@H](Cc1ccccc1)NC(=O)[C@@H](NC(=O)CNC(=O)[C@H](CCC(=O)O)NC(=O)[C@H](C)NC(=O)[C@@H](N)Cc1c[nH]cn1)[C@@H](C)O)[C@@H](C)O)C(C)C)C(=O)N[C@@H](C)C(=O)N[C@@H](Cc1c[nH]c2ccccc12)C(=O)N[C@@H](CC(C)C)C(=O)N[C@H](C(=O)N[C@@H](CCCCN)C(=O)NCC(=O)N[C@@H](CCCNC(=N)N)C(=O)NCCCCCCCC(=O)N[C@@H](CO)C(=O)N[C@@H](CCCCN)C(=O)N[C@@H](CCCCN)C(=O)N[C@@H](CCC(N)=O)C(=O)NCC(=O)N1CCC[C@H]1C(=O)N[C@@H](Cc1c[nH]c2ccccc12)C(=O)N[C@@H](CC(C)C)C(=O)N[C@@H](CCC(=O)O)C(=O)N[C@@H](CCC(=O)O)C(=O)N[C@@H](CCC(=O)O)C(=O)N[C@@H](CCC(=O)O)C(=O)N[C@@H](CCC(=O)O)C(=O)N[C@@H](C)C(=O)N[C@@H](Cc1ccc(O)cc1)C(=O)NCC(=O)N[C@@H](Cc1c[nH]c2ccccc12)C(=O)N[C@@H](CC(C)C)C(=O)N[C@@H](CC(=O)O)C(=O)N[C@@H](Cc1ccccc1)C(N)=O)C(C)C` [Compound 43, GLP-1(7-36)-8Aoc-SKK-[Gln1,Leu15]Gastrin17]: 51.9 nM and 82.5 nM.
The matching figures for `CC[C@H](C)[C@H](NC(=O)[C@H](Cc1ccccc1)NC(=O)[C@H](CCC(=O)O)NC(=O)[C@H](CCCCN)NC(=O)[C@H](C)NC(=O)[C@H](C)NC(=O)[C@H](CCC(N)=O)NC(=O)CNC(=O)[C@H](CCC(=O)O)NC(=O)[C@H](CC(C)C)NC(=O)[C@H](Cc1ccc(O)cc1)NC(=O)[C@H](CO)NC(=O)[C@H](CO)NC(=O)[C@@H](NC(=O)[C@H](CC(=O)O)NC(=O)[C@H](CO)NC(=O)[C@@H](NC(=O)[C@H](Cc1ccccc1)NC(=O)[C@@H](NC(=O)CNC(=O)[C@H](CCC(=O)O)NC(=O)[C@H](C)NC(=O)[C@@H](N)Cc1c[nH]cn1)[C@@H](C)O)[C@@H](C)O)C(C)C)C(=O)N[C@@H](C)C(=O)N[C@@H](Cc1c[nH]c2ccccc12)C(=O)N[C@@H](CC(C)C)C(=O)N[C@H](C(=O)N[C@@H](CCCCN)C(=O)NCC(=O)N[C@@H](CCCNC(=N)N)C(=O)NCCc1cccc2c1oc1c(CCC(=O)N[C@@H](CO)C(=O)N[C@@H](CCCCN)C(=O)N[C@@H](CCCCN)C(=O)N[C@@H](CCC(N)=O)C(=O)NCC(=O)N3CCC[C@H]3C(=O)N[C@@H](Cc3c[nH]c4ccccc34)C(=O)N[C@@H](CC(C)C)C(=O)N[C@@H](CCC(=O)O)C(=O)N[C@@H](CCC(=O)O)C(=O)N[C@@H](CCC(=O)O)C(=O)N[C@@H](CCC(=O)O)C(=O)N[C@@H](CCC(=O)O)C(=O)N[C@@H](C)C(=O)N[C@@H](Cc3ccc(O)cc3)C(=O)NCC(=O)N[C@@H](Cc3c[nH]c4ccccc34)C(=O)N[C@@H](CC(C)C)C(=O)N[C@@H](CC(=O)O)C(=O)N[C@@H](Cc3ccccc3)C(N)=O)cccc12)C(C)C` [Compound 44, GLP-1(7-36)-DBF-SKK-[Gln1,Leu15]Gastrin17]: 25.7 nM and 86.9 nM.
